Laboratory results: PubChem BioAssay (NCI)
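Abbreviation: GI50, concentration required for 50% inhibition of growth. TGI denotes the concentration required for complete inhibition of growth.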

What was measured:
Experiment in all cases: NCI-60 cell line screen, 384-well format
U251 glioblastoma = tested on: U251 glioblastoma
SW-620 colon = tested on: SW-620 colon
TK-10 renal = tested on: TK-10 renal
SK-MEL-2 melanoma = tested on: SK-MEL-2 melanoma
SNB-19 CNS = tested on: SNB-19 CNS
HOP-62 NSCLC = tested on: HOP-62 NSCLC
NCI-H460 NSCLC = tested on: NCI-H460 NSCLC
OVCAR-5 ovarian = tested on: OVCAR-5 ovarian
KM12 colon = tested on: KM12 colon
UO-31 renal = tested on: UO-31 renal
HT29 colon = tested on: HT29 colon
OVCAR-4 ovarian = tested on: OVCAR-4 ovarian
SK-OV-3 ovarian = tested on: SK-OV-3 ovarian
UACC-257 melanoma = tested on: UACC-257 melanoma
OVCAR-8 ovarian = tested on: OVCAR-8 ovarian
A549 NSCLC = tested on: A549 NSCLC
NCI-H23 lung = tested on: NCI-H23 lung
OVCAR-3 ovarian = tested on: OVCAR-3 ovarian
SF-295 CNS = tested on: SF-295 CNS
HCT-15 colon = tested on: HCT-15 colon
SF-268 CNS = tested on: SF-268 CNS
SK-MEL-28 melanoma = tested on: SK-MEL-28 melanoma
RPMI-8226 leukemia = tested on: RPMI-8226 leukemia
HCT-116 colon = tested on: HCT-116 colon
NCI/ADR-RES ovarian = tested on: NCI/ADR-RES ovarian
HCC-2998 colon = tested on: HCC-2998 colon
CCRF-CEM leukemia = tested on: CCRF-CEM leukemia
CAKI-1 renal = tested on: CAKI-1 renal
MOLT-4 leukemia = tested on: MOLT-4 leukemia
PC-3 prostate = tested on: PC-3 prostate
HOP-92 NSCLC = tested on: HOP-92 NSCLC
ACHN renal = tested on: ACHN renal
IGROV1 ovarian = tested on: IGROV1 ovarian
MDA-MB-435 melanoma = tested on: MDA-MB-435 melanoma
LOX IMVI melanoma = tested on: LOX IMVI melanoma
T-47D breast = tested on: T-47D breast
A498 renal = tested on: A498 renal
NCI-H226 lung = tested on: NCI-H226 lung
786-0 renal = tested on: 786-0 renal
MALME-3M melanoma = tested on: MALME-3M melanoma
K-562 leukemia = tested on: K-562 leukemia
UACC-62 melanoma = tested on: UACC-62 melanoma
MDA-MB-231 breast = tested on: MDA-MB-231 breast
NCI-H322M lung = tested on: NCI-H322M lung
SF-539 CNS = tested on: SF-539 CNS
HL-60(TB) leukemia = tested on: HL-60(TB) leukemia
SN12C renal = tested on: SN12C renal
COLO 205 colon = tested on: COLO 205 colon
DU-145 prostate = tested on: DU-145 prostate
M14 melanoma = tested on: M14 melanoma

`CO[C@H]1C[C@@H]2CC[C@@H](C)[C@@](O)(O2)C(=O)C(=O)N2CCCC[C@H]2C(=O)O[C@H]([C@H](C)C[C@@H]2CC[C@@H](OP(C)(C)=O)[C@H](OC)C2)CC(=O)[C@H](C)/C=C(\C)[C@@H](O)[C@@H](OC)C(=O)[C@H](C)C[C@H](C)/C=C/C=C/C=C/1C` gave a GI50 (U251 glioblastoma) of 4.92 µM, a TGI (U251 glioblastoma) of 21.3 µM and a GI50 (SW-620 colon) of 14.9 µM. It also gave a TGI (SW-620 colon) of 28.6 µM, a GI50 (TK-10 renal) of 11.6 µM and a TGI (TK-10 renal) of 28.6 µM. It also gave a GI50 (SK-MEL-2 melanoma) of 11 µM, a TGI (SK-MEL-2 melanoma) of 23 µM and a GI50 (SNB-19 CNS) of 13.5 µM. For the same molecule, the TGI (SNB-19 CNS) was 26.9 µM, the GI50 (HOP-62 NSCLC) was 0.491 µM and the TGI (HOP-62 NSCLC) was 21.7 µM. For the same molecule, the GI50 (NCI-H460 NSCLC) was < 0.01 µM, the TGI (NCI-H460 NSCLC) was 17.4 µM and the GI50 (OVCAR-5 ovarian) was 15.3 µM. The TGI (OVCAR-5 ovarian) was 29.8 µM, the GI50 (KM12 colon) was 13.4 µM and the TGI (KM12 colon) was 26.6 µM. The GI50 (UO-31 renal) was < 0.01 µM, the TGI (UO-31 renal) was 0.0198 µM and the GI50 (HT29 colon) was 12.5 µM. It also gave a TGI (HT29 colon) of 25.2 µM, a GI50 (OVCAR-4 ovarian) of 12 µM and a TGI (OVCAR-4 ovarian) of 25 µM. For the same molecule, the GI50 (SK-OV-3 ovarian) was < 0.01 µM, the TGI (SK-OV-3 ovarian) was 20.2 µM and the GI50 (UACC-257 melanoma) was 15.3 µM. The TGI (UACC-257 melanoma) was 28.7 µM, the GI50 (OVCAR-8 ovarian) was 11 µM and the TGI (OVCAR-8 ovarian) was 23.2 µM. The GI50 (A549 NSCLC) was < 0.01 µM, the TGI (A549 NSCLC) was 39.9 µM and the GI50 (NCI-H23 lung) was 19.5 µM. The TGI (NCI-H23 lung) was 35.2 µM, the GI50 (OVCAR-3 ovarian) was 11.2 µM and the TGI (OVCAR-3 ovarian) was 23.4 µM. The GI50 (SF-295 CNS) was < 0.01 µM, the TGI (SF-295 CNS) was 16.6 µM and the GI50 (HCT-15 colon) was 11.4 µM. For the same molecule, the TGI (HCT-15 colon) was 23.9 µM, the GI50 (SF-268 CNS) was 12.5 µM and the TGI (SF-268 CNS) was 25.3 µM. For the same molecule, the GI50 (SK-MEL-28 melanoma) was 12.2 µM, the TGI (SK-MEL-28 melanoma) was 24.7 µM and the GI50 (RPMI-8226 leukemia) was < 0.01 µM. It also gave a GI50 (HCT-116 colon) of 12.4 µM, a TGI (HCT-116 colon) of 25.2 µM and a GI50 (NCI/ADR-RES ovarian) of 15.4 µM. It also gave a TGI (NCI/ADR-RES ovarian) of 38.7 µM, a GI50 (HCC-2998 colon) of 12.3 µM and a TGI (HCC-2998 colon) of 24.9 µM. For the same molecule, the GI50 (CCRF-CEM leukemia) was 0.0126 µM, the TGI (CCRF-CEM leukemia) was 17 µM and the GI50 (CAKI-1 renal) was 10.5 µM. The TGI (CAKI-1 renal) was 23.1 µM, the GI50 (MOLT-4 leukemia) was < 0.01 µM and the TGI (MOLT-4 leukemia) was 11.7 µM. For the same molecule, the GI50 (PC-3 prostate) was 1.06 µM, the TGI (PC-3 prostate) was 21.3 µM and the GI50 (HOP-92 NSCLC) was 12.5 µM. The TGI (HOP-92 NSCLC) was 25.5 µM, the GI50 (ACHN renal) was 12.4 µM and the TGI (ACHN renal) was 25.2 µM. The GI50 (IGROV1 ovarian) was < 0.01 µM, the TGI (IGROV1 ovarian) was 16 µM and the GI50 (MDA-MB-435 melanoma) was 14.2 µM. The TGI (MDA-MB-435 melanoma) was 27.9 µM, the GI50 (LOX IMVI melanoma) was 17.5 µM and the TGI (LOX IMVI melanoma) was 31.4 µM. The GI50 (T-47D breast) was < 0.01 µM, the TGI (T-47D breast) was 25 µM and the GI50 (A498 renal) was < 0.01 µM. The TGI (A498 renal) was 17.6 µM, the GI50 (NCI-H226 lung) was 12.4 µM and the TGI (NCI-H226 lung) was 25.3 µM. The GI50 ([…]-0 renal) was 11.2 µM, the TGI (786-0 renal) was 23.5 µM and the GI50 (MALME-3M melanoma) was < 0.01 µM. The TGI (MALME-3M melanoma) was 21.2 µM, the GI50 (K-562 leukemia) was 11.2 µM and the TGI (K-562 leukemia) was 23.4 µM. The GI50 (UACC-62 melanoma) was 7.86 µM, the TGI (UACC-62 melanoma) was 21.6 µM and the GI50 (MDA-MB-231 breast) was 12 µM. For the same molecule, the TGI (MDA-MB-231 breast) was 24.4 µM, the GI50 (NCI-H322M lung) was < 0.01 µM and the TGI (NCI-H322M lung) was 25.3 µM. The GI50 (SF-539 CNS) was < 0.01 µM, the TGI (SF-539 CNS) was 20.7 µM and the GI50 (HL-60(TB) leukemia) was 15.3 µM. The TGI (HL-60(TB) leukemia) was 28.7 µM, the GI50 (SN12C renal) was 14 µM and the TGI (SN12C renal) was 27.2 µM. The GI50 (COLO 205 colon) was 13.5 µM, the TGI (COLO 205 colon) was 26.5 µM and the GI50 (DU-145 prostate) was 11.3 µM. It also gave a TGI (DU-145 prostate) of 26.8 µM, a GI50 (M14 melanoma) of 10.4 µM and a TGI (M14 melanoma) of 22.2 µM.
